Experimental data as given in ChEMBL document CHEMBL1201862, “PubChem BioAssay data set” (2004).
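Exposure lasted 48 hours, with cells grown in 96-well plates and compounds tested at five concentrations. Abbreviation: GI50, concentration required for 50% inhibition of growth.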 Active and inactive are the calls of the source. No stated cut-off is given here; in the data, active = GI50 up to about 1.1 µM and inactive = higher.

Legend:
Experiment in all cases: DTP human tumour cell line panel, 48 h
OVCAR-4 = tested on: OVCAR-4
SF-295 = tested on: SF-295
HT-29 = tested on: HT-29
SK-MEL-5 = tested on: SK-MEL-5
SNB-19 = tested on: SNB-19
DU-145 = tested on: DU-145
CCRF-CEM = tested on: CCRF-CEM
OVCAR-8 = tested on: OVCAR-8
BT-549 = tested on: BT-549
UACC-257 = tested on: UACC-257
MDA-MB-435 = tested on: MDA-MB-435
SR = tested on: SR
UACC-62 = tested on: UACC-62
COLO 205 = tested on: COLO 205
NCI-H226 = tested on: NCI-H226
LOX IMVI = tested on: LOX IMVI
SNB-75 = tested on: SNB-75
U-251 = tested on: U-251
HCT-15 = tested on: HCT-15

| SMILES | GI50 (OVCAR-4) | GI50 (SF-295) | GI50 (HT-29) | GI50 (SK-MEL-5) | GI50 (SNB-19) | GI50 (DU-145) | GI50 (CCRF-CEM) | GI50 (OVCAR-8) | GI50 (BT-549) | GI50 (UACC-257) | GI50 (MDA-MB-435) | GI50 (SR) | GI50 (UACC-62) | GI50 (COLO 205) | GI50 (NCI-H226) | GI50 (LOX IMVI) | GI50 (SNB-75) | GI50 (U-251) | GI50 (HCT-15) [µM] |
| --- | --- | --- | --- | --- | --- | --- | --- | --- | --- | --- | --- | --- | --- | --- | --- | --- | --- | --- | --- |
| NCc1ccccc1.O=C(O)NCc1ccccc1 | 25.1 µM (inactive) | 31.2 µM (inactive) | 27.7 µM (inactive) | 16.8 µM (inactive) | 40.3 µM (inactive) | 42.8 µM (inactive) | 19.4 µM (inactive) | 37.1 µM (inactive) | 29.5 µM (inactive) | 32 µM (inactive) | 31.5 µM (inactive) | 0.682 µM (active) | 15.1 µM (inactive) | 19.3 µM (inactive) | 30.1 µM (inactive) | 30.3 µM (inactive) | 27.4 µM (inactive) | 26.9 µM (inactive) | 30.8 |
| CN(C)c1ccc(Cc2cc3c(O)ccc(O)c3cc(Cc3ccc(N(C)C)cc3)c2=O)cc1 | 18.1 µM (inactive) | 34.4 µM (inactive) | 19.2 µM (inactive) | 19.2 µM (inactive) | 29.4 µM (inactive) | 26.9 µM (inactive) | 2.96 µM (inactive) | 17.1 µM (inactive) | 13.7 µM (inactive) | 21.1 µM (inactive) | 15.1 µM (inactive) | 3.08 µM (inactive) | 26 µM (inactive) | 16.1 µM (inactive) | 24.7 µM (inactive) | 17.7 µM (inactive) | > 55.8 µM (inactive) | 20 µM (inactive) | 21.5 |
| Nc1nc(Cl)cc(NCC2(CO)CC(CCCCc3ccccc3)C2)n1 (centres undefined) | > 100 µM (inactive) | 18.2 µM (inactive) | 13.7 µM (inactive) | 3.86 µM (inactive) | > 100 µM (inactive) | > 100 µM (inactive) | 0.0875 µM (active) | 27.2 µM (inactive) | > 100 µM (inactive) | 61.9 µM (inactive) | 42.9 µM (inactive) | 19.2 µM (inactive) | > 100 µM (inactive) | 27.9 µM (inactive) | > 100 µM (inactive) | 5.73 µM (inactive) | 81.3 µM (inactive) | > 100 µM (inactive) | 34.8 |
| COc1ccc(C2Oc3c(cccc3OC)C=C2[N+](=O)[O-])cc1OC (centres undefined) | 18.7 µM (inactive) | 20.6 µM (inactive) | 18.5 µM (inactive) | 4.14 µM (inactive) | 17.3 µM (inactive) | 11.7 µM (inactive) | 1.58 µM (inactive) | 8.93 µM (inactive) | 5.47 µM (inactive) | 3.71 µM (inactive) | 2.16 µM (inactive) | 2.59 µM (inactive) | 4.16 µM (inactive) | 13.7 µM (inactive) | 18.6 µM (inactive) | 2.49 µM (inactive) | 7.21 µM (inactive) | 3.97 µM (inactive) | 3.46 |
| Oc1cc(Br)cc2cc(Cl)cnc12 | 1 µM (active) | 2.08 µM (inactive) | 11 µM (inactive) | 1.71 µM (inactive) | 3.11 µM (inactive) | 4.56 µM (inactive) | 1.53 µM (inactive) | 2.45 µM (inactive) | 2.44 µM (inactive) | 3.27 µM (inactive) | 3.3 µM (inactive) | 1.11 µM (active) | 2.08 µM (inactive) | 21.4 µM (inactive) | 16.3 µM (inactive) | 0.635 µM (active) | 8.2 µM (inactive) | 1.56 µM (inactive) | 0.665 |
| O=C(CCc1ccc(O)c(O)c1)c1ccc(O)c(O)c1O | 19.7 µM (inactive) | 18.3 µM (inactive) | 26.7 µM (inactive) | 17.3 µM (inactive) | 34.4 µM (inactive) | 19.7 µM (inactive) | 10.2 µM (inactive) | 22.9 µM (inactive) | > 10 µM (inactive) | 31.5 µM (inactive) | 18.9 µM (inactive) | 24.9 µM (inactive) | 25.9 µM (inactive) | 17.7 µM (inactive) | 11.5 µM (inactive) | 27.7 µM (inactive) | 19.1 µM (inactive) | 14.8 µM (inactive) | 14.7 |
